Values of other authors as cited in patent US20140316796A1, “SYSTEMS, METHODS, AND COMPUTER-READABLE MEDIA FOR LIMITED DISTRIBUTION OF SPECIALTY DRUG USING A COMPUTER HUB OPERATING AT A SINGLE ACCESS POINT” (Jazz Pharmaceuticals, priority 2013, published 2014).

Details: pH 4

SMILES: CSCC[C@@H]1NC(=O)[C@H](CC(C)C)NC(=O)[C@H](CCCNC(=N)N)NC(=O)[C@H](CO)NC(=O)[C@@H]2CSSC[C@@H]3NC(=O)[C@H](CO)NC(=O)CNC(=O)[C@H]([C@@H](C)O)NC(=O)[C@H](CSSC[C@H](N)C(=O)N[C@@H](CCCCN)C(=O)NCC(=O)N[C@@H](CCCCN)C(=O)NCC(=O)N[C@@H](C)C(=O)N[C@@H](CCCCN)C(=O)N2)NC(=O)[C@H](CSSC[C@@H](C(N)=O)NC(=O)[C@H](CCCCN)NC(=O)CNC(=O)[C@H](CO)NC(=O)[C@H](CCCNC(=N)N)NC3=O)NC(=O)[C@H](CC(=O)O)NC(=O)[C@H](Cc2ccc(O)cc2)NC1=O [ziconotide]
- solution stability: stable at 45 °C for weeks
